Experimental data: patent publication US20200010519A1, “NUCLEASE FUSIONS FOR ENHANCING GENOME EDITING BY HOMOLOGY-DIRECTED TRANSGENE INTEGRATION” (INSTITUT NATIONAL DE LA SANTE ET DE LA RECHERCHE …, priority 2017, published 2020)

Tests used:
JAK (spacer 54) = test: Indel mutation patterns by deep sequencing of PCR amplicons, HEK293 cells; assay type: cell-based, human
[1] = system: JAK and PCSK genes, AAVS1 locus; test: Indel mutation patterns, all three guide RNAs taken together, HEK293 cells; assay type: cell-based, human; settings: compared to Cas9, three guide RNAs

O=c1cc(N2CCOCC2)oc2c(-c3cccc4c3sc3ccccc34)cccc12 [NU7441]
reduction of the two most frequent mutations observed with Cas9 (JAK (spacer 54)): 10 fold | indels with increased frequency that were deletions flanked by micro-homologies of 2 or more nucleotides [1]: 10 out of 12
